Data published in publication PMC3292429 (Channels, 2009).
“Also recorded” adds a separate entry of the source.

How the values were obtained:
BK channel [1] = conditions: result in words, cited from earlier work
IK1 channel = conditions: cited from earlier work; for mechanism of IK1 current increase: result in words
[2] = test system: BK channel (large conductance Ca^2+-activated K channel, KCa1.1) in parotid acinar cells; assay: Whole-cell patch clamp: IK1-induced inhibition of BK current; format: cell-based, mouse
[3] = test system: IK1 (intermediate conductance Ca^2+-activated K channel, KCa3.1); assay: Whole-cell patch clamp: IK1 current; format: cell-based, mouse; conditions: 10 μM DCEBIO, +50 mV, 80 nM free Ca^2+; result in words
BK channel [4] = target: BK channel (Mus musculus, UniProt Q08460); conditions: result in words; cited from earlier work
[5] = test system: IK1 (intermediate conductance Ca^2+-activated K channel, KCa3.1); conditions: result in words; cited from earlier work
[6] = stated without own data or reference

BK channel (Mus musculus, UniProt Q08460), sequence (Q08460 whole entry): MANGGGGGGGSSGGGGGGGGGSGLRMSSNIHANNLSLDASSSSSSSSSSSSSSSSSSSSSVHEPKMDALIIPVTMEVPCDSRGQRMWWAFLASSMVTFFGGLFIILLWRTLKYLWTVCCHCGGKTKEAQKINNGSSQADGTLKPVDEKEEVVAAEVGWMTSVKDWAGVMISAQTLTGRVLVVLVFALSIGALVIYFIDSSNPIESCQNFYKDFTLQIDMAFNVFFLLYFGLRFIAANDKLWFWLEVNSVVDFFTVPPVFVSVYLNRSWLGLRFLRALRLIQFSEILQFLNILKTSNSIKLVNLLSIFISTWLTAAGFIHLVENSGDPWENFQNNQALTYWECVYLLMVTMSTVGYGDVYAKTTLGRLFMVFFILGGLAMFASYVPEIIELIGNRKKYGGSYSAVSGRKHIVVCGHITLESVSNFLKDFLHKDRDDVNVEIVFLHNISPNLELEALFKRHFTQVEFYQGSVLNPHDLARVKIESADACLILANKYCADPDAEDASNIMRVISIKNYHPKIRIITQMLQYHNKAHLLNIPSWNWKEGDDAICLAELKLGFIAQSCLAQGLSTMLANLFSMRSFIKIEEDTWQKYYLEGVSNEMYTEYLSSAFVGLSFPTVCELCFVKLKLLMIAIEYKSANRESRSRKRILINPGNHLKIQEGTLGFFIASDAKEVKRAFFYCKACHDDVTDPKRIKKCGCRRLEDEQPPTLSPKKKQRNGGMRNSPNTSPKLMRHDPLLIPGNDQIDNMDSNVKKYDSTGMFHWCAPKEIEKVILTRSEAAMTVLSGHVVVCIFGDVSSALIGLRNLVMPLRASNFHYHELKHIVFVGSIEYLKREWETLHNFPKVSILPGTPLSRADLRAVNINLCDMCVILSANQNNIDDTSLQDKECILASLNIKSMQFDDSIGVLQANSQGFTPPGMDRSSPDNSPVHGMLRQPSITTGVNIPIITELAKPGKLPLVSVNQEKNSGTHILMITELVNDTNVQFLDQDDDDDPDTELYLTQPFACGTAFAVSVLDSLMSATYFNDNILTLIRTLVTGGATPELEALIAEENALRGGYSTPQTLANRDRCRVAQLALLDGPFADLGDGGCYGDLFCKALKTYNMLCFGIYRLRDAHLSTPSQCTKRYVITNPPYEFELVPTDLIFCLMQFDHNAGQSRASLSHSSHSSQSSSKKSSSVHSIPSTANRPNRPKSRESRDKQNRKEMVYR

**Q.** Which “effect of internal TEA on BK single channel current level” value (BK channel [1]; [6]) does the source give for `CC[N+](CC)(CC)CC` [TEA] here?
**A.** reduction in the BK single channel current level (as does TEA)

**Q.** And the “time dependence of open channel block by internal TEA” value (BK channel [1]; [6])?
**A.** no apparent time dependence

**Q.** With `CC(C)(O)[C@H]1O[C@H]2CC[C@@]3(C)[C@@](O)(CC[C@H]4Cc5c([nH]c6ccccc56)[C@@]43C)C2=CC1=O` [paxilline] as the compound, how does the “BK channel block by paxilline” value (BK channel [1]) read?
**A.** specific BK channel blocker

**Q.** Which “share of closed events accounted for by the two closed times together” value (IK1 channel; channels activated by 1-EBIO) does the source give for `CCn1c(=O)[nH]c2ccccc21` [1-EBIO, 1-ethyl-2-benzimidazolinone] here?
**A.** 97%

**Q.** What about the “share of events with closed time 5 msec” value (IK1 channel; channels activated by 1-EBIO) of the same compound?
**A.** 31%

**Q.** And the “share of events with closed time about 1.6 msec” value (IK1 channel; channels activated by 1-EBIO)?
**A.** 66%

**Q.** What about the “mechanism of IK1 current increase” value (IK1 channel) of the same compound?
**A.** increase IK1 current by increasing the channel open probability

**Q.** For `CCn1c(=O)[nH]c2cc(Cl)c(Cl)cc21` [DCEBIO, 5,6-Dichloro-1-ethyl-1,3-dihydro-2H-benzimidazol-2-one], which “reduction of BK current” value ([2]; 2 μM DCEBIO, pooled from 5 cells, voltage-independent (Fig. 5A)) is on record?
**A.** 50%

**Q.** And the “recovery of BK current after washout of DCEBIO” value ([2]; 10 μM DCEBIO, +50 mV, 80 nM free Ca^2+ in pipette, single example (Fig. 1))?
**A.** 96 % of control

**Q.** What about the “mean recovery of BK current after washout of DCEBIO” value ([2]; 10 μM DCEBIO, +50 mV, mean ± SEM, 9 experiments) of the same compound?
**A.** 94 ± 3%

**Q.** And the “effect on time-dependent BK current” value ([2]; 10 μM DCEBIO, +50 mV, reversible, result in words)?
**A.** time-dependent BK current was reduced when IK1 channels were activated

**Q.** And the “inhibition of BK channel current by IK1 activation” value ([2]; 10 μM DCEBIO, +50 mV, single example (Fig. 2))?
**A.** 60%

**Q.** And the “reduction in BK current by IK1 activation, remaining cells” value ([2]; 10 μM DCEBIO, four of 19 cells, omitted from analysis, result in words)?
**A.** only modest reductions

**Q.** What about the “voltage dependence of IK1-induced BK inhibition” value ([2]; 10 μM DCEBIO, range of test voltages, result in words) of the same compound?
**A.** very little voltage dependence; also recorded: relatively little and no consistent voltage dependence

**Q.** What about the “mean block of BK current by IK1 activation” value ([2]; DCEBIO (10 μM), +50 mV, mean ± SEM, N = 5) of the same compound?
**A.** 66 ± 6%

**Q.** And the “activation of IK1 current” value [3]?
**A.** activated the time and voltage independent IK1 currents; also recorded: triggered the expected time- and voltage-independent current through these channels

**Q.** What about the “effect on BK channels in cells from IK1 gene-ablated mice” value (BK channel [4]) of the same compound?
**A.** no effects on BK channels

**Q.** What about the “mechanism of IK1 current increase” value (IK1 channel) of the same compound?
**A.** increase IK1 current by increasing the channel open probability

**Q.** For `Clc1ccccc1C(c1ccccc1)(c1ccccc1)n1cccn1` [TRAM-34], which “mean BK level after IK1 block by TRAM-34” value ([2]; 1 or 10 μM TRAM-34 in presence of DCEBIO, mean ± SEM, N = 5) is on record?
**A.** 88 ± 3 % of control

**Q.** What about the IK1 channel inhibition [5] of the same compound?
**A.** IK1 inhibitor

**Q.** With `C[N+](C)(C)CCCCCCCCCC[N+](C)(C)C` [decamethonium] as the compound, how does the “competition of native β subunit inactivation with cytosolic blockers” value (BK channel [1]) read?
**A.** does not
